The NIST ThermoML archive (doi:10.1016/j.tca.2016.08.008)

Assay: molar heat capacity at constant pressure
Settings: 101.33 kPa, Metastable crystal, Vacuum adiabatic calorimetry

O=P([O-])([O-])[O-].[Tb+3] [terbium orthophosphate]
Settings | molar heat capacity at constant pressure [J/K/mol]
91.94 K | 46.03
93.84 K | 46.75
94 K | 47.04
95.93 K | 47.75
96.06 K | 48.09
98.01 K | 48.74
98.12 K | 49.05
100 K | 49.89
100.09 K | 49.85
100.18 K | 50.06
102.79 K | 51.27
102.86 K | 51.16
106.14 K | 52.71
109.43 K | 54.24
110 K | 54.53
112.71 K | 55.74
116.01 K | 57.18
119.3 K | 58.57
120 K | 58.89
122.6 K | 59.95
125.9 K | 61.32
129.2 K | 62.65
130 K | 63
132.49 K | 63.94
135.79 K | 65.24
139.09 K | 66.54
140 K | 66.91
142.39 K | 67.77
145.69 K | 69.04
148.98 K | 70.3
150 K | 70.62
152.28 K | 71.55
155.57 K | 72.72
158.87 K | 73.84
160 K | 74.17
162.16 K | 74.93
165.45 K | 76.02
168.73 K | 77.12
170 K | 77.56
172.02 K | 78.29
175.28 K | 79.23
178.56 K | 80.19
180 K | 80.8
181.84 K | 81.29
185.11 K | 82.39
188.38 K | 83.45
190 K | 83.89
191.65 K | 84.37
194.92 K | 85.28
198.18 K | 86.29
200 K | 86.85
201.43 K | 87.36
205.1 K | 88.44
209.15 K | 89.46
210 K | 89.66
213.21 K | 90.54
217.26 K | 91.68
220 K | 92.36
221.31 K | 92.89
225.34 K | 93.96
229.34 K | 95.06
230 K | 94.92
233.27 K | 95.82
237.28 K | 96.8
240 K | 97.37
241.28 K | 97.76
245.26 K | 98.58
249.23 K | 99.5
250 K | 99.7
253.16 K | 100.4
257.1 K | 101.2
260 K | 101.9
260.99 K | 102.1
264.86 K | 102.9
268.76 K | 103.8
270 K | 104
272.6 K | 104.6
276.41 K | 105.3
280 K | 106
280.2 K | 105.9
283.96 K | 106.6
287.7 K | 107.3
290 K | 107.9
